# Measured values as given in paper PMC7899551, “Phase 1 study of Z-endoxifen in patients with advanced gynecologic, desmoid, and hormone receptor-positive solid tumors” (Oncotarget, 2021).
# “Also recorded” adds a separate entry of the source.
# Columns and labels:
# [1] = Urinary excretion of Z-endoxifen over a 24-hour collection; assay type: in vivo, human
# Protocol: A 3-mL blood sample was collected in a K2 EDTA tube on day 1 of cycle 1 before drug administration and at the following times post-first dose: 0.5, 1, 2, 3, 4, 6, 8, and 24 hours. Samples were collected at the same time points on day 28 of cycle 1 for DL1-6 until a protocol amendment eliminated the requirement for these samples at the higher dose levels. Samples were wrapped in aluminum foil after collection to protect from light exposure. A 10-mL aliquot of urine was collected before agent administration on cycle 1 day 1, for 24 hours after dosing on day 1, and before drug administration on cycle 2 day 1; samples were refrigerated prior to analysis.
# Plasma and urine concentrations of Z- and E-endoxifen were measured using a validated, post-column fluorescence derivatization HPLC assay. Non-compartmental pharmacokinetic parameters were calculated using WinNonlin version 7.0 (Pharsight Corp., Mountainview, CA, USA). A 2 μM Cmax target was established for day 28 plasma concentration. The amount of Z-endoxifen excreted in urine was measured over a 24-hour collection period.
# [2] = test system: gynecologic tumors, desmoid tumors, hormone receptor-positive solid tumors; assay: Clinical outcome (RECIST 1.1 response, cycles on study); assay type: in vivo, human; conditions: for prolonged disease stabilization: desmoid
# Protocol: This study enrolled patients ≥ 18 years of age with gynecological tumors, desmoid tumors, histologically-documented HR+ (ER+/PR+, ER+/PR-, or ER-/PR+) breast cancer, or other solid tumors that were ER+ or PR+ by immunohistochemistry (any positive expression). […] All other patients must have progressed on at least one line of standard-of-care therapy.
# Eye examinations were performed at baseline, every six months while on study, and if clinically indicated. CT scans were performed at baseline, and tumor response was assessed every 2 cycles (8 weeks; every 16 weeks for patients on study for more than 12 months) based on the Response Evaluation Criteria in Solid Tumors (RECIST) version 1.1 [39]. A confirmatory scan was performed after at least 4 weeks to confirm objective response.
# ERα = molecular target: T1, ERα (Homo sapiens, UniProt P03372); assay: 18F-FES PET/CT imaging (blocking estrogen receptor binding); assay type: in vivo; conditions: after 1–5 days of oral treatment
# T1 construct: from tissue; host or cells: patients' tumors in vivo, e.g. a pre-sacral soft tissue lesion of serous ovarian cancer
# T1 sequence (P03372 1-595): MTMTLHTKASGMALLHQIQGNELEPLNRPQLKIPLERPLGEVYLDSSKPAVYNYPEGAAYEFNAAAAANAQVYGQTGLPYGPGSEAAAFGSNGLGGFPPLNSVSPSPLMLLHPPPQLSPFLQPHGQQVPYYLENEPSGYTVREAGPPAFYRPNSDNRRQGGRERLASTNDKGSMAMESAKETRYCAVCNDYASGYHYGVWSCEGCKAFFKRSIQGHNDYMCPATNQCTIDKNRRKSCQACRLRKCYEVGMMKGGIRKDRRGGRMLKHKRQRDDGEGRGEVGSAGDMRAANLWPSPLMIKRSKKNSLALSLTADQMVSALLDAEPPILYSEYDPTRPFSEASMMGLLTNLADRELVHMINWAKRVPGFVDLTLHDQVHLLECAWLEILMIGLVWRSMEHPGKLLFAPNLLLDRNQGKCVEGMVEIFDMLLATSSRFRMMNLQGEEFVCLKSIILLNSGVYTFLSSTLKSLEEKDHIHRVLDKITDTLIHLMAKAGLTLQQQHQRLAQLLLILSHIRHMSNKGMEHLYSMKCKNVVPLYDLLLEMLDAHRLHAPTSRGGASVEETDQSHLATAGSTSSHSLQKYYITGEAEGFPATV
# Protocol: The pharmacodynamic effect of Z-endoxifen, blocking estrogen receptor binding, was assessed by ^18F-FES PET/CT imaging. […] Twenty patients in this trial agreed to be screened by ^18F-FES PET/CT imaging to assess ER status. Ten patients who were positive prior to treatment were re-imaged from 1 to 5 days after treatment initiation. We present here images taken after 3 days of treatment from a patient with serous ovarian cancer whose imaging has not previously been reported (patient 40, DL8, Figure 2). […] This patient developed a bowel obstruction during cycle 1 attributed to their disease and chose to come off study. Other images from patients in this trial have been previously reported.
# The uptake of ^18F-FES was measured using PET/CT imaging in patients enrolled in the present trial before and after 1–5 days of treatment with oral Z-endoxifen HCl as previously described. Five additional patients were scanned following the publication of the imaging approach. The images presented here are from one of these 5 patients.
# [3] = patient 7, fallopian tube cancer
compound,measurement,setting,value
CC/C(=C(\c1ccc(O)cc1)c1ccc(OCCNC)cc1)c1ccccc1 [Z-endoxifen],amount excreted in the urine,[1],< 0.26 % of dose
same,mean number of cycles completed,[2]; 3 ER+/PR- breast cancer patients,3.0 ± 2.6 cycles
same,mean number of cycles completed,[2]; 6 ER+/PR+ breast cancer patients,6.7 ± 4.4 cycles
same,disease stabilizations of ≥ 6 cycles,"[2]; 20 evaluable patients with gynecologic tumors (patients 20, 30, 31)",3 patients
same,partial responses,[2]; 34 evaluable patients,Three patients had partial responses; also recorded: Three patients in this study experienced partial responses
same,patients with stable disease ≥ 6 cycles,[2]; 34 evaluable patients,8 patients
same,"treatment cycles on study, average",[2]; 34 evaluable patients,7.2 cycles
same,"treatment cycles on study, median",[2]; 34 evaluable patients,4 cycles
same,"treatment cycles on study, range",[2]; 34 evaluable patients,1–62 cycles
same,Clinical Benefit (partial response or stable disease for at least 6 cycles),[2]; Breast cancer (n = 9),4 patients
same,CBR (partial response or stable disease ≥ 6 cycles),"[2]; DL1 to DL5, 20 to 140 mg daily, 3/16 patients",18.8%
same,CBR (partial response or stable disease ≥ 6 cycles),"[2]; DL6 to DL8, 200 to 360 mg daily, 8/18 patients",44.4%
same,Clinical Benefit (partial response or stable disease for at least 6 cycles),[2]; Desmoid (n = 4),3 patients
same,mean cycles completed on study,[2]; ER+ breast cancer,5.1 ± 4.4 cycles
same,mean cycles on study,"[2]; ER+ ovarian cancer, 4 patients",4.0 ± 4.0 cycles
same,Clinical Benefit (partial response or stable disease for at least 6 cycles),[2]; Fallopian tube cancer (n = 2),1 patients
same,Clinical Benefit (partial response or stable disease for at least 6 cycles),[2]; Granulosa cell ovarian (n = 2),0 patients
same,Clinical Benefit (partial response or stable disease for at least 6 cycles),[2]; Ovarian cancer (n = 9),2 patients
same,Clinical Benefit (partial response or stable disease for at least 6 cycles),[2]; Total of Supplementary Table 1 (endometrial patient 31 not included),10 patients
same,overall CBR (partial response or stable disease ≥ 6 cycles),[2]; all dose levels,32.5%
same,CBR,"[2]; hormone receptor-positive breast cancer, 4/9 patients",44%
same,clinical response,[2]; [3],partial response
same,cycles on study,[2]; [3],14 cycles
same,clinical response,"[2]; patient 23, desmoid fibromatosis, prior progression on tamoxifen",partial response
same,prolonged disease stabilization,[2]; patient 28 (DL7),11 cycles
same,stable disease duration,"[2]; patient 31, endometrial cancer",7 cycles
same,clinical response,"[2]; patient 33 (DL8), breast cancer",partial response
same,prolonged disease stabilization,"[2]; patient 35 (DL8), prior progression on tamoxifen",24 cycles
same,stable disease duration,"[2]; patients 3, 10, and 21 (DL1, DL3, DL6), breast cancer",≥ 6 cycles
same,CBR,"[2]; patients with desmoid tumors, 3/4 patients",75%
same,CBR,"[2]; patients with gynecologic malignancies, 4/20 patients",20%
same,mean cycles on study,"[2]; undetermined ER status ovarian cancer, n = 5",2.0 ± 1.2 cycles
same,18F-FES tracer uptake on PET/CT,ERα,FES tracer uptake could be reduced
